Results: US10023836B2, “Medium for yeasts” (YAMAGUCHI UNIVERSITY, priority 2012, dated 2018)
Structures can show the parent of a compound that is named as a salt.

Legend:
[1] = system: RAK2683 yeast strain; assay: Candidate proliferation factors added to BM culture medium (FIG. 4); assay type: cell-based, Saccharomyces cerevisiae; conditions: 24 hours
Description: Next, the yeast extract (M<5000) was further fractionated and proliferation was tested. […] As the substances having a molecular weight of roughly 500<M<1000, Acetyl-CoA, CoA, yeast RNA (RNA), and NAD were selected; each was added to a BM culture medium; and RAK2683 yeast strain was cultivated for 24 hours, after which OD600 was measured. Moreover, the yeast extract (YE)-added culture medium and YPD culture medium were treated as positive controls.

[2] = system: RAK2683 yeast strain; assay: Investigation of nitrogen source used singly in MM culture medium instead of ammonium sulfate (Table 4); assay type: cell-based, Saccharomyces cerevisiae; conditions: Table 4 conditions
[3] = system: commercially available baker's yeast; assay: Aspartic acid swapped with ammonium sulfate, compared with MM and YPD (FIG. 2); assay type: cell-based; conditions: between 0.5 and 2.0% aspartic acid added
Description: In Table 4, a culture medium was prepared in which aspartic acid (Asp), which had the highest value for OD600 after 48 hours, was swapped with ammonium sulfate, and the proliferation of yeast (commercially available baker's yeast) in the MM culture medium and YPD was compared. […] Based on this information, a BM culture medium in which 2% aspartic acid had been added as a nitrogen source to 0.17% YNB and 2% glucose was used as an object of investigation.

[4] = system: Saccharomyces cerevisiae RAK3599 strain; assay: Leucine concentration in AKD culture medium, RAK3599 strain (FIG. 16B); assay type: cell-based
[5] = system: Saccharomyces cerevisiae leucine-requiring RAK778 strain (BY4712 (leu2Δ0) strain); assay: Leucine concentration in AKD culture medium, leucine-requiring strain (FIG. 16A); assay type: cell-based
From the text: Leucine concentration in the AKD culture mediums was adjusted to 0%, 0.0001%, 0.001%, 0.01%, 0.1%, and 1%, respectively, and proliferation of a Saccharomyces cerevisiae leucine-requiring RAK778 strain (BY4712 (leu2Δ0) strain) was investigated. […] Given the above-noted results, a preferred leucine concentration was understood to be around 0.1%.

[6] = system: Candida albicans JCM1542 strain; assay: Nutritional requirements in AYD culture medium (FIG. 52); assay type: cell-based; conditions: component eliminated from AYD culture medium
Description: (§1) In a case where no special provisions are made, a procedure for a cultivation experiment using the culture medium to be investigated for proliferation was such that a yeast undergoing investigation was pre-cultured in a YPD liquid culture medium at 28° C. for 24 hours, after which the yeast was adjusted such that OD600=20. […] In addition, OD600 was measured every 15 minutes by a spectrophotometer (Cell density meter co8000, WPA). Hereafter, data is represented by graphs for a case using the automatic spectrophotometer; however, these graphs are primarily used to compare the slope of logarithmic growth phase proliferation curves for each culture medium, and because OD600 is measured without dilution, values where OD600=3 to 3.5 or more may be incorrect.
(§2) Each of the yeast strains was cultured under identical conditions using the basic culture method described above.

[7] = system: Candida utilis JCM9624 strain; assay: Nutritional requirements in AYD culture medium (FIG. 51); assay type: cell-based; conditions: component eliminated from AYD culture medium
Description: as §1, §2

[8] = system: RAK3599 strain; assay: Vitamin and FeCl3 concentration in AKD′ culture medium (FIGS. 22 to 28); assay type: cell-based, Saccharomyces cerevisiae; conditions: for proliferation at a content of 0: AKD′ culture medium without the substance
Description: as §1
Pyridoxine concentration in the AKD′ culture medium was adjusted to 0, 0.004, 0.04, 0.4, 4, and 40 μg/mL, respectively, and proliferation of the RAK3599 strain was investigated.
Pantothenic acid concentration in the AKD′ culture medium was adjusted to 0, 0.004, 0.04, 0.4, 4, and 40 μg/mL, respectively, and proliferation of the RAK3599 strain was investigated.
Thiamine concentration in the AKD′ culture medium was adjusted to 0, 0.004, 0.04, 0.4, 4, and 40 μg/mL, respectively, and proliferation of the RAK3599 strain was investigated.
Nicotinic acid concentration in the AKD′ culture medium was adjusted to 0, 0.004, 0.04, 0.4, 4, and 40 μg/mL, respectively, and proliferation of the RAK3599 strain was investigated.
Myo-inositol concentration in the AKD′ culture medium was adjusted to 0, 0.02 μg/mL, 0.2 μg/mL, 2 μg/mL, 20 μg/mL, and 200 μg/mL, respectively, and proliferation of the RAK 3599 strain was investigated.
FeCl3 concentration in the AKD′ culture medium was adjusted to 0, 0.002, 0.02, 0.2, 2, and 20 μg/mL, respectively, and proliferation of the RAK3599 strain was investigated.

[9] = system: Candida glabrata BY23876 strain; assay: Nutritional requirements in AYD culture medium (FIG. 50); assay type: cell-based; conditions: component eliminated from AYD culture medium
Description: In a case where no special provisions are made, a procedure for a cultivation experiment using the culture medium to be investigated for proliferation was such that a yeast undergoing investigation was pre-cultured in a YPD liquid culture medium at 28° C. for 24 hours, after which the yeast was adjusted such that OD600=20. Thereafter, 5 μL of culture solution was inoculated in 5 mL of each culture medium to be investigated, which had been dispensed into L-shaped test tubes (final OD60=0.02); aerobic roller tube culture was performed at 28° C.; and OD was continuously measured with an automatic spectrophotometer (BioPhoto recorder TVS062CA, […]). In addition, OD600 was measured every 15 minutes by a spectrophotometer (Cell density meter co8000, WPA). Hereafter, data is represented by graphs for a case using the automatic spectrophotometer; however, these graphs are primarily used to compare the slope of logarithmic growth phase proliferation curves for each culture medium, and because OD600 is measured without dilution, values where OD600=3 to 3.5 or more may be incorrect.
Nutritional requirements of each of the following yeast strains were investigated in the AYD culture medium, and utility of the AYD culture medium was confirmed. Each of the yeast strains was cultured under identical conditions using the basic culture method described above.

[10] = system: RAK2683 yeast strain; conditions: glucose not added to BM culture medium; 2% ethanol, 2% glycerol or 0.1 to 2% albumin; 24 hours
Description: OD600 was measured after RAK2683 yeast strain had been cultivated for 24 hours in a culture medium in which between 0.1 and 2% albumin had been added to the BM culture medium.

[11] = system: commercially available baker's yeast; assay: Investigation of carbon source added instead of glucose in BM culture medium (FIG. 5); assay type: cell-based; conditions: 2% added singly instead of glucose in BM culture medium, 28° C., 24 hours
Description: OD600 was measured after commercially available baker's yeast had been cultivated at 28° C. for 24 hours in a culture medium in which 2% of sugars such as galactose, raffinose, trehalose, fructose, maltose, mannose, sucrose, and ribose, or DNA (negative control) had been added instead of glucose in the BM culture medium.

CC(=O)SCCNC(=O)CCNC(=O)[C@H](O)C(C)(C)COP(=O)(O)OP(=O)(O)OC[C@H]1O[C@@H](n2cnc3c(N)ncnc32)[C@H](O)[C@@H]1OP(=O)(O)O [Acetyl-CoA]
proliferation compared with YPD [1]: none of them reaching the proliferation level of YPD

N[C@@H](CC(=O)[O-])C(=O)[O-].O.[Na+].[Na+] [Aspartic acid, L-Aspartic acid sodium salt monohydrate]
proliferation when added singly as nitrogen source [2]: favorable proliferation
proliferation compared with ammonium sulfate-added culture medium [3]: proliferation markedly improved over that of a culture medium to which ammonium sulfate had been added

CC(C)(COP(=O)(O)OP(=O)(O)OC[C@H]1O[C@@H](n2cnc3c(N)ncnc32)[C@H](O)[C@@H]1OP(=O)(O)O)[C@@H](O)C(=O)NCCC(=O)NCCS [CoA]
proliferation compared with YPD [1]: none of them reaching the proliferation level of YPD

CC(C)C[C@H](N)C(=O)O [Leucine, L-Leucine]
concentration at which proliferation was inhibited [4]: 1%
concentration at which almost no proliferation was observed [5]: less than 0.001%
concentration at which proliferation reached a maximum value [5]: 0.1%
concentration at which proliferation was inhibited [5]: 1%
preferred concentration ([5]; from results with RAK778 and RAK3599 strains): around 0.1%

NC(=O)c1ccc[n+]([C@@H]2O[C@H](COP(=O)([O-])OP(=O)(O)OC[C@H]3O[C@@H](n4cnc5c(N)ncnc54)[C@H](O)[C@@H]3O)[C@@H](O)[C@H]2O)c1 [NAD]
proliferation compared with YPD [1]: none of them reaching the proliferation level of YPD

O=S(=O)([O-])[O-].[Zn+2] [Zn2+, zinc sulfate]
nutritional requirement of the strain [6]: preferable for proliferation
nutritional requirement of the strain [7]: preferable for proliferation

O=C(O)CCCC[C@@H]1SC[C@@H]2NC(=O)N[C@@H]21 [biotin]
concentration at which proliferation was slightly inhibited ([8]; AKD′ culture medium): 200 µg/L
preferred concentration ([8]; AKD′ culture medium): around 2 μg/L
proliferation at a content of 0 [8]: Almost no proliferation
nutritional requirement of the strain [9]: require
nutritional requirement of the strain [6]: require
nutritional requirement of the strain [7]: not require

CCO [ethanol]
proliferation as carbon source [10]: almost no proliferation

OCC(O)CO [glycerol]
proliferation as carbon source [10]: almost no proliferation

O=C(O)c1cccnc1 [nicotinic acid]
concentration at which proliferation reached a maximum value ([8]; AKD′ culture medium): 4 µg/mL
concentration at which proliferation was inhibited ([8]; AKD′ culture medium): 40 µg/mL
preferred concentration ([8]; AKD′ culture medium): around 4000 μg/L
proliferation at a content of 0 [8]: A significant degree of proliferation
OD600 after 24 hours ([8]; AKD′ culture medium, nicotinic acid 0 μg/mL): 9
OD600 after 24 hours ([8]; AKD′ culture medium, nicotinic acid 0.004 μg/mL): 10
OD600 after 24 hours ([8]; AKD′ culture medium, nicotinic acid 0.04 μg/mL): 10
OD600 after 24 hours ([8]; AKD′ culture medium, nicotinic acid 0.4 μg/mL): 9
OD600 after 24 hours ([8]; AKD′ culture medium, nicotinic acid 4 μg/mL): 10
OD600 after 24 hours ([8]; AKD′ culture medium, nicotinic acid 40 μg/mL): 8
nutritional requirement of the strain [9]: require

Cc1ncc(CO)c(CO)c1O.Cl [pyridoxine, Pyridoxine hydrochloride]
preferred concentration ([8]; AKD′ culture medium): around 400 μg/L
proliferation at a content of 0 [8]: A fair degree of proliferation
nutritional requirement of the strain [9]: require

O=C[C@H](O)[C@H](O)[C@H](O)CO [ribose]
proliferation as carbon source [11]: no proliferation whatsoever

Cc1ncc(C[n+]2csc(CCO)c2C)c(N)n1 [thiamine, Thiamine hydrochloride]
preferred concentration ([8]; AKD′ culture medium): around 400 μg/L
proliferation at a content of 0 [8]: A fair degree of proliferation
nutritional requirement of the strain [9]: require
nutritional requirement of the strain [7]: require

OC[C@H]1O[C@H](O[C@H]2O[C@H](CO)[C@@H](O)[C@H](O)[C@H]2O)[C@H](O)[C@@H](O)[C@@H]1O [trehalose]
proliferation as carbon source [11]: no proliferation whatsoever

albumin
proliferation as carbon source [10]: almost no proliferation
